Test results published in patent publication US20040142317A1, “Use of amino acid transporter atbo,+ as a delivery system for drugs and prodrugs” (priority 2003, published 2004).

Assays:
Assay in all cases: D-[3H]-serine transport in HRPE cells transfected with transporter cDNA
Format in all cases: cell-based
Details in all cases: D-[3H]-serine 5 μM
[1] = biological target: T1, ATB^0,+ (Mus musculus, UniProt Q9JMA9)
T1 construct: expressed in transfected cells; host or cells: HRPE cells
T1 sequence (Q9JMA9 1-638): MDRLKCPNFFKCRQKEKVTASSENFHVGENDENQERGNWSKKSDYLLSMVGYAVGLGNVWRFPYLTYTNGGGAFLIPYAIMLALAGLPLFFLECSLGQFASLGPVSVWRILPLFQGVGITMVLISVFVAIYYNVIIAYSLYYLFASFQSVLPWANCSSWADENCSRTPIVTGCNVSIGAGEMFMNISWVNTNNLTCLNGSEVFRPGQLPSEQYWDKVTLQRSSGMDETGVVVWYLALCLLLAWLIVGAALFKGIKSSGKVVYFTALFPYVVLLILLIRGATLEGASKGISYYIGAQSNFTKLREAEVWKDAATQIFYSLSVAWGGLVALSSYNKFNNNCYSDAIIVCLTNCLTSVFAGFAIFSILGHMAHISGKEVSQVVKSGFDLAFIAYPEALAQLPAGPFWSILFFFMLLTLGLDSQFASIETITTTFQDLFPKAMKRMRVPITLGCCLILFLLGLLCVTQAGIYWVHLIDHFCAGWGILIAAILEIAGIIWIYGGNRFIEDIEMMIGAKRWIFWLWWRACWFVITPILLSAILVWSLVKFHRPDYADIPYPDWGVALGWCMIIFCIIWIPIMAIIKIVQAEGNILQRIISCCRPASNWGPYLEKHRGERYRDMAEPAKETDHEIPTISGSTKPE
Method: (§1) Transport of D-[^3H]-serine (5 μM) was measured in HRPE cells transfected with cDNA of each transporter.
(§2) The present inventors evaluated the function of 10 different amino acid transporter clones with respect to transport of D-serine in heterologous expression systems (FIG. 11). All of these transporters are expressed in the intestinal tract. The list of the transporters tested include three energy-independent, heterodimeric facilitative transporters (L1, L2, and b^0,+), three subtypes of the Na^+-coupled system A (ATA1, ATA2, and ATA3), two subtypes of the Na^+- and H^+-coupled system N (SN1 and SN2), the Na^+-coupled system ATB^0, and the Na^+- and Cl^−-coupled system ATB^0,+. […] The ability to transport D-serine was the highest for the Na^+- and Cl^−-coupled transporter ATB^0,+. ATB^0,+ belongs to the gene family of neurotransmitter transporters whose transport function is energized by multiple driving forces, namely a Na^+ gradient, a Cl^− gradient, and membrane potential. […] Based on the energetics of these two transport systems, ATB^0,+ is expected to play the leading role in this process.

[2] = biological target: T2, SN1 (Homo sapiens, UniProt Q99624)
T2 construct: expressed in transfected cells; host or cells: HRPE cells
Method: as §1, §2

[3] = biological target: T3, b^0,+ (b^0,+AT/4F2hc) (Mus musculus, UniProt Q9QXA6)
T3 construct: expressed in transfected cells; host or cells: HRPE cells
T3 sequence (Q9QXA6 1-487): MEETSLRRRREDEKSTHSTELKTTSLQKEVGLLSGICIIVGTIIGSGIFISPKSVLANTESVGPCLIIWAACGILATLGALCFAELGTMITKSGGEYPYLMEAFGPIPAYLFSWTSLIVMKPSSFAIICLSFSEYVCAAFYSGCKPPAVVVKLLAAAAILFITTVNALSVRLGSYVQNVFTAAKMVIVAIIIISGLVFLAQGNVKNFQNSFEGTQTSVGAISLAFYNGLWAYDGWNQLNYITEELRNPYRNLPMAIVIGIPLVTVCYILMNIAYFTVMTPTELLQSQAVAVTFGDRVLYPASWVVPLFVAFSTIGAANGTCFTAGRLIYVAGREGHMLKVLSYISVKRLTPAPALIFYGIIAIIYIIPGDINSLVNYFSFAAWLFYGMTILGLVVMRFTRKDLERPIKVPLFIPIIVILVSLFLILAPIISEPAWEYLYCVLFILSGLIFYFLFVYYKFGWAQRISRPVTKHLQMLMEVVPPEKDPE
Method: as §1, §2

[4] = biological target: T4, system L1 (LAT1/4F2hc) (Homo sapiens, UniProt Q01650)
T4 construct: expressed in transfected cells; host or cells: HRPE cells
Method: as §1, §2

[5] = biological target: T5, SN2 (Homo sapiens, UniProt Q8WUX1)
T5 construct: expressed in transfected cells; host or cells: HRPE cells
Method: as §1, §2

[6] = biological target: T6, LAT2/4F2hc (Homo sapiens, UniProt Q9UHI5)
T6 construct: expressed in transfected cells; host or cells: HRPE cells
T6 sequence (Q9UHI5 1-535): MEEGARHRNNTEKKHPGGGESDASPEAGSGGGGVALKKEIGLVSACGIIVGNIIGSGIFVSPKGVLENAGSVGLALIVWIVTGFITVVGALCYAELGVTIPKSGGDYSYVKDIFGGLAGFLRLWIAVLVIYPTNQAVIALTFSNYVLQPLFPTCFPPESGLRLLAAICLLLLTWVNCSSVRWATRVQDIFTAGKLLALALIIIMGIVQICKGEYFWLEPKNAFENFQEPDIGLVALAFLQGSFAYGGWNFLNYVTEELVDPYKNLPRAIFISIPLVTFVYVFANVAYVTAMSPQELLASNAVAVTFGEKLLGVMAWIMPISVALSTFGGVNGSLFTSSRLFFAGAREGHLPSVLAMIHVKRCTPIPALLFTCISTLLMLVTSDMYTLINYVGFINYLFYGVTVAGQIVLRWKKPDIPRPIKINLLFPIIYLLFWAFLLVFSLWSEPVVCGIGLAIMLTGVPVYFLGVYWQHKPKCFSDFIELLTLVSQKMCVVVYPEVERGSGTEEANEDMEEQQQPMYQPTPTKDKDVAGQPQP
T6 sequence (P08195 1-529 partner): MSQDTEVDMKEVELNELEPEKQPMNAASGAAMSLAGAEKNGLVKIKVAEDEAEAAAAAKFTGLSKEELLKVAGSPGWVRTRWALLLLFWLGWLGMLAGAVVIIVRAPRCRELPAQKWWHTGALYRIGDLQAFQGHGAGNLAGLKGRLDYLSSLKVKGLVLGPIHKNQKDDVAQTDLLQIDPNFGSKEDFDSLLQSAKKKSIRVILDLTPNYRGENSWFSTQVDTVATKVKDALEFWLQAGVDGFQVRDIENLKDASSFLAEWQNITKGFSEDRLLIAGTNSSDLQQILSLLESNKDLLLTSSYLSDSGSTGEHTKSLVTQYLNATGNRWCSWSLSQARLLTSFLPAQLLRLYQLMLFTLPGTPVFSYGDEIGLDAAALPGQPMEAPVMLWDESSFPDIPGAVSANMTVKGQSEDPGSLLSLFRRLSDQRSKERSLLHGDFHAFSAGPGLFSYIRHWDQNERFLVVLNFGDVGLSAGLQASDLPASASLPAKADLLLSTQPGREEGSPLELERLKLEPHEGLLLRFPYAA
Method: as §1, §2

T4 sequence (Q01650 whole entry, species assumed, one chain of several): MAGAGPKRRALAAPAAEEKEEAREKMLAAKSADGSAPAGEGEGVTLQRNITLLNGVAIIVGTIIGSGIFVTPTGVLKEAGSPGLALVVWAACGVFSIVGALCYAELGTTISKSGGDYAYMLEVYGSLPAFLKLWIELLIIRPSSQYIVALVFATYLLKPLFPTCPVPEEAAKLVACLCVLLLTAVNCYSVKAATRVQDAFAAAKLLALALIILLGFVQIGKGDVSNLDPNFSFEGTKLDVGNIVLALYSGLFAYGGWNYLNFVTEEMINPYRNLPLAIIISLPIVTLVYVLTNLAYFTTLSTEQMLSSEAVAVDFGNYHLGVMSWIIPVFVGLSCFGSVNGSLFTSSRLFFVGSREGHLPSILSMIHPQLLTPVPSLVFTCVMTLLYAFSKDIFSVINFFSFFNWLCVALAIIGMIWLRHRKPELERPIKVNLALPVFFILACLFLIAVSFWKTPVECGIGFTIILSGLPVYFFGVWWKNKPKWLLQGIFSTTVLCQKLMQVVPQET
T2 sequence (Q99624 whole entry, species assumed): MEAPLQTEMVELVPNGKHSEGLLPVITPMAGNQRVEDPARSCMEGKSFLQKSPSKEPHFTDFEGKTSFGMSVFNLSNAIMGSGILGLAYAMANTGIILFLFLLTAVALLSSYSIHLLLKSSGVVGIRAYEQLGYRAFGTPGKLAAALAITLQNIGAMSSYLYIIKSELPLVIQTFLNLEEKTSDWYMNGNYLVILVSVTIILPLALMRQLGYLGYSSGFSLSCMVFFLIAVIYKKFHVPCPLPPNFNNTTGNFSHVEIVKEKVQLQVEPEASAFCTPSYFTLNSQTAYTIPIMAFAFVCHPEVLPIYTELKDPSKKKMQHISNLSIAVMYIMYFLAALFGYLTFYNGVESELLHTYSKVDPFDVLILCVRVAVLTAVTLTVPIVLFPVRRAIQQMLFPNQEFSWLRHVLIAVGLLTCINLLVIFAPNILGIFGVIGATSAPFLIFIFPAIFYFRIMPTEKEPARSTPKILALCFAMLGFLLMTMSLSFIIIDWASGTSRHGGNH
T5 sequence (Q8WUX1 whole entry, species assumed): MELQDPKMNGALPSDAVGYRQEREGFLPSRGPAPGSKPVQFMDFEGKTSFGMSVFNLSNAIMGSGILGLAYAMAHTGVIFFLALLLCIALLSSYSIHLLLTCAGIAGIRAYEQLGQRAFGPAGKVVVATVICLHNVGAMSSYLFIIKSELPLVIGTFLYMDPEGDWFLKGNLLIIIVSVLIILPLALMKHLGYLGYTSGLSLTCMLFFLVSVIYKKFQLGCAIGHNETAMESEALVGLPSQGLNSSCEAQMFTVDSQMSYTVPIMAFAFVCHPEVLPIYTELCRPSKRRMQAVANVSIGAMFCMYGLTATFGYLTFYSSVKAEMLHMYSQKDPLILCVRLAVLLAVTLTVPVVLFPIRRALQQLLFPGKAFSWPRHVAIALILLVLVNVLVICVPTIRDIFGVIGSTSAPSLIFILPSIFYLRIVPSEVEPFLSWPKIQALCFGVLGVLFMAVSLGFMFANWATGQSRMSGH

SMILES: N[C@H](CO)C(=O)O [D-Serine, D-serine]
- D-serine transport [1]: highest
- D-serine transport [2]: did not transport D-serine
- D-serine transport [3]: significant ability to transport
- D-serine transport [4]: significant ability to transport
- D-serine transport [5]: did not transport D-serine
- D-serine transport [6]: did not exhibit detectable D-serine transport activity
